According to US20200407717A1, “METHODS OF MODULATING ANTISENSE ACTIVITY” (Ionis Pharmaceuticals, Inc., priority 2018, published 2020):
In the oligonucleotide strings, read from the 5' end, every base follows the letter of its sugar. An asterisk marks phosphorothioate; unmarked linkages are phosphodiester. Other units and linkages are bracketed, terminal groups are in braces. A string of capitals states the bases alone. e = 2'-O-(2-methoxyethyl) (MOE); {AF594} = Alexa Fluor 594 dye; k = constrained ethyl (cEt); {FITC} = fluorescein label; [5mC] = 5-methylcytosine; d = 2'-deoxy (DNA)

Tests used:
[1] = biological target: T1, EGFR (Homo sapiens, UniProt P00533); experiment: Direct NanoBRET binding assay; parameters: made in house; host or cells: HEK293 cells; conditions: Direct BRET, AF594-labeled oligonucleotide 0.1-10,000 nM
Experimental: (§1) NanoBRET (bioluminescence resonance energy transfer) binding assays were performed as described in Vickers and Crooke. PLOS One, 11(8), (2016). An EGFR NLuc construct was prepared by first amplifying human EGFR from the full length cDNA clone (Origene RC217223) with forward PCR primer 5′-[…]-3′ (SEQ ID NO: 1) and reverse PCR primer 5′-[…] (SEQ ID NO: 2). The amplified product was ligated into the NheI and XhoI sites of the NanoLuc expression vector pFC32K Nluc CMV-Neo (Promega). Protein was expressed in HEK293 cells and isolated using Protein G magnetic beads. For competitive BRET, the Alexafluor594-labeled modified oligonucleotide 766636 was diluted into water in opaque white 96-well plates at 10 nM and competed with 0.1-10,000 nM of unlabeled modified oligonucleotide. […] of 2× binding buffer containing […] (relative luminescence units) beads/well was added and plates were shaken for 10 minutes at room temperature. Nanoluciferase activity and BRET were measured in a Glowmax Discover plate reader and EC50 values, shown in the tables below, were calculated using GraphPad Prism. For direct BRET, Alexafluor594 modified nucleotides were diluted at 0.1-10,000 nM and experiments were performed as described above.

[2] = biological target: T1, EGFR; experiment: Pull-down assay in the presence of EGF; assay type: binding; parameters: endogenous in cells; host or cells: A431 cells
Experimental: A431 cells were treated with 100 ng/mL, 200 ng/mL, or 400 ng/mL EGF and then lysed. The cell lysates were mixed with beads bound to compound no. 451104, as prepared as in Example 1. Proteins were eluted with compound no. 116847 and run on a SDS-PAGE followed by western blot, as in Example 1. The same membrane was sequentially blotted for total EGFR (T-EGFR), phosphorylated EGFR (P-EGFR, ab205827, Abcam), nucleolin (ab22758, Abcam), and TCP1β. […] 451104 to EGFR.
In a similar experiment in which EGF was added after cell lysis, A431 cells were lysed and mixed with beads bound to compound no. 451104. Varying concentrations of EGF were added during the elution step with compound no. 116847.

[3] = biological target: T2, Purified recombinant EGF (Homo sapiens, UniProt P01133); experiment: Membrane binding assay, EGF; conditions: EGF 3 nM to 3 μM
T2 construct: purchased ThermoFisher PHG0311L
T2 sequence (P01133 971-1023 limits assumed): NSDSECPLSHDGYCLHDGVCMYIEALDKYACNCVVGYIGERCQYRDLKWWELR
Experimental: (§2) A membrane binding assay was performed to test the binding affinities of modified oligonucleotides to EGF and EGFR. Purified recombinant EGF (PHG0311L, ThermoFisher) or EGFR protein (PV3872, ThermoFisher) were incubated with FITC-labeled phosphorothioate oligonucleotide, compound no. 256903 or FITC-labeled phosphate oligonucleotide, PO-ASO, in binding buffer (20 mM Tris-HCl, pH 7.5, 150 mM NaCl, 1 mM DTT, 10% glycerol) for 1 hr at 37° C. Each reaction contained purified EGF at 3 nM to 3 μM or recombinant EGFR at 5 nM to 150 nM. Samples were loaded onto a hyband ECL nitrocellulose membrane (GE Healthcare) and soaked in wash buffer (20 mM Tris-HcCl, pH 7.5, 250 mM NaCl). Protein-bound ASOs were transferred to the membrane by applying a vaccum in a 96-well Bio-Rad Bio-Dot apparatus. After washing, membranes were air-dried and scanned using a phoshoimager (GE Healthcare). Kds were calculated for compound no. 256903 using Prism. The results below represent an average of three replicate experiments. […] In contrast, compound no. 256903 bound to both EGF and EGFR, with a higher affinity for EGFR than for EGF.

[4] = biological target: T1, EGFR; experiment: Membrane binding assay, EGFR; parameters: purchased ThermoFisher PV3872; conditions: EGFR 5 nM to 150 nM
Experimental: as §2

[5] = test system: EGFR; experiment: Pulse-chase EGFR synthesis and degradation, A431 cells; assay type: cell-based
Experimental: In order to test the effects of a PS-ASO on EGFR synthesis and degradation, A431 cells were incubated with either compound no. 116847 or no PS-ASO compound for 16 hours. A pulse-chase protocol was then performed in which the cells were incubated for 20 minutes in cysteine and methionine free media followed by incubation with [^35S]-Met and [^35S]-Cys in order to analyze newly synthesized protein. Cell samples were collected in RIPA buffer after 50 minutes (FIG. 6A) or at the times indicated in the tables below, and cell lysates were immunoprecipitated with EGFR antibody or s100a10 antibody (610071, BD Bioscience). The resulting, labeled immunocomplexes were resolved by SDS-PAGE and visualized by autoradiography using phosphoimager. FIG. 6A and Table 13 show the levels of nascent EGFR protein and nascent s100a10, a control protein. […] 116847 relative to cells that were not incubated with an ASO.

[6] = test system: EGF-EGFR signaling; experiment: EGFR signaling western blot (p-EGFR, p-ERK), A431 cells; assay type: cell-based
Experimental: In order to test the effects of a PS-ASO on EGFR signaling, A431 cells were incubated with compound no. 116847 or no PS-ASO compound for 16 hours. All cells were then treated with EGF prior to being subjected to the pulse-chase protocol described above. Cell lysates were run on a SDS-PAGE gel and analyzed by sequential western blot for phosphorylated EGFR (P-EGFR), total EGFR (T-EGFR), phosphorylated ERK (P-ERK), and total ERK (T-ERK) using the antibodies described above for EGFR, 4370 for P-ERK (Cell Signaling Technology), and 4695 for T-ERK (Cell Signaling Technology).
110080, 25690, 25699, 395251, or 395254 at 2 μM for 16 hours prior to carrying out the pulse-chase experiment described above.

[7] = biological target: T1, EGFR; experiment: Competitive NanoBRET binding assay; parameters: made in house; host or cells: HEK293 cells; conditions: Competitive BRET vs 10 nM AF594-labeled 766636
Experimental: as §1

[8] = biological target: T1, EGFR; experiment: Competitive BRET in absence or presence of exogenous EGF; assay type: binding; parameters: made in house; host or cells: HEK293 cells
Experimental: as §1
The binding affinities for EGFR of PS-ASOs with various sugar modifications were measured with competitive BRET, as described in Example 1. 10 nM compound no. […]

Substance: AF594-GksGksTks^mCdsGdsAds^mCds^mCdsGdsAdsAdsGdsTds^mCksAksTk (antisense GGTCGACCGAAGTCAT; 5'-AF594 label, cEt/MOE, 5-methylC, phosphorothioate, chemistry not fully specified) [compound 1024788]
- EC50 [1]: 525 nM

Substance: Biotin-TEG-^mCesTesGes^mCesTesAdsGds^mCds^mCdsTds^mCds^ioUdsGdsGdsAdsTesTGesTesGesAe [compound 451104]
- competition by exogenous EGF for binding to EGFR ([2]; A431 cells treated with 100, 200 or 400 ng/mL EGF, then lysed): did not compete
- recovery of EGFR, nucleolin, or TCP1β from the beads on direct addition of EGF ([2]; EGF added to cell lysates during elution): did not significantly alter

Substance: AF594-Gks^mCksAksTdsGdsTdsTds^mCdsTds^mCddsAds^mCdsAdsTksTksAk (antisense {AF594}-kG*k[5mC]*kA*dT*dG*dT*dT*d[5mC]*dT*d[5mC]*dA*d[5mC]*dA*kT*kT*kA) [compound 1055615]
- EC50 [1]: 746 nM

Substance: FITC-^mCeoTeoGeo^mCeoTeoAdoGdo^mCds^mCdoTdo^mCdoTdoGdoGdoAdoTeoTeoTeoGeoAe (antisense {FITC}-e[5mC]eTeGe[5mC]eTdAdGd[5mC]*d[5mC]dTd[5mC]dTdGdGdAeTeTeTeGeA) [PO-ASO, FITC-labeled phosphate oligonucleotide]
- interaction with EGF [3]: did not appreciably interact
- interaction with EGFR [4]: did not appreciably interact

Substance: CTGCTAGCCTCTGGATTTGA (sugars from the 5' end e5 d10 e5, all phosphorothioate, methylation of C not given here) [compound 116847, 5-10-5 2′-MOE gapmer, phosphorothioate]
- EGFR synthesis and degradation ([5]; 16 hours incubation, relative to cells not incubated with an ASO): unchanged
- Relative Abundance of EGFR (%) ([5]; Time 0 hr): 103%
- Relative Abundance of EGFR (%) ([5]; Time 4 hr): 91%
- Relative Abundance of EGFR (%) ([5]; Time 16 hr): 69%
- Relative Abundance of EGFR (%) ([5]; Time 24 hr): 54%
- EGF-EGFR signaling ([6]; 16 hours incubation, then EGF): not affected
- p-EGFR (%) ([6]; Time 0.5 hr): 89%
- p-ERK (%) ([6]; Time 0.5 hr): 102%
- p-EGFR (%) ([6]; Time 1 hr): 76%
- p-ERK (%) ([6]; Time 1 hr): 94%
- p-EGFR (%) ([6]; Time 2 hr): 85%
- p-ERK (%) ([6]; Time 2 hr): 85%
- p-EGFR (%) ([6]; Time 4 hr): 55%
- p-ERK (%) ([6]; Time 4 hr): 87%
- EC50 ([7]; Table 5): 181 nM
- EC50 ([7]; Table 6): 1660 nM
- Bret Ratio (% Max) ([8]; 0.01 nM, EGF added 0): 15.0 % Max
- Bret Ratio (% Max) ([8]; 0.01 nM, EGF added 100 ng/mL): 13.3 % Max
- Bret Ratio (% Max) ([8]; 0.03 nM, EGF added 0): 15.4 % Max
- Bret Ratio (% Max) ([8]; 0.03 nM, EGF added 100 ng/mL): 12.4 % Max
- Bret Ratio (% Max) ([8]; 0.1 nM, EGF added 0): 16.2 % Max
- Bret Ratio (% Max) ([8]; 0.1 nM, EGF added 100 ng/mL): 13.2 % Max
- Bret Ratio (% Max) ([8]; 0.30 nM, EGF added 0): 19.6 % Max
- Bret Ratio (% Max) ([8]; 0.30 nM, EGF added 100 ng/mL): 15.1 % Max
- Bret Ratio (% Max) ([8]; 1.0 nM, EGF added 0): 26.1 % Max
- Bret Ratio (% Max) ([8]; 1.0 nM, EGF added 100 ng/mL): 18.0 % Max
- Bret Ratio (% Max) ([8]; 3.0 nM, EGF added 0): 32.6 % Max
- Bret Ratio (% Max) ([8]; 3.0 nM, EGF added 100 ng/mL): 24.2 % Max
- Bret Ratio (% Max) ([8]; 10.0 nM, EGF added 0): 41.8 % Max
- Bret Ratio (% Max) ([8]; 10.0 nM, EGF added 100 ng/mL): 30.7 % Max
- Bret Ratio (% Max) ([8]; 30.0 nM, EGF added 0): 52.8 % Max
- Bret Ratio (% Max) ([8]; 30.0 nM, EGF added 100 ng/mL): 39.7 % Max
- Bret Ratio (% Max) ([8]; 100 nM, EGF added 0): 64.1 % Max
- Bret Ratio (% Max) ([8]; 100 nM, EGF added 100 ng/mL): 54.7 % Max
- Bret Ratio (% Max) ([8]; 300 nM, EGF added 0): 70.8 % Max
- Bret Ratio (% Max) ([8]; 300 nM, EGF added 100 ng/mL): 63.8 % Max
- Bret Ratio (% Max) ([8]; 1000 nM, EGF added 0): 82.9 % Max
- Bret Ratio (% Max) ([8]; 1000 nM, EGF added 100 ng/mL): 77.4 % Max
- Bret Ratio (% Max) ([8]; 3000 nM, EGF added 0): 99.5 % Max
- Bret Ratio (% Max) ([8]; 3000 nM, EGF added 100 ng/mL): 94.2 % Max

Substance: AF594-^mCes^mCesTesTes^mCes^mCds^mCdsTdsGdsAdsAdsGdsGdsTdsTds^mCes^mCesTes^mCes^mCe (antisense {AF594}-e[5mC]*e[5mC]*eT*eT*e[5mC]*d[5mC]*d[5mC]*dT*dG*dA*dA*dG*dG*dT*dT*e[5mC]*e[5mC]*eT*e[5mC]*e[5mC]) [compound 1024789]
- EC50 [1]: 202 nM

Substance: AF594-GksGks^mCdsTdsAds^mCdsTdsAds^mCdsGds^mCds^mCdsGdsTks^mCksAk (antisense {AF594}-kG*kG*d[5mC]*dT*dA*d[5mC]*dT*dA*d[5mC]*dG*d[5mC]*d[5mC]*dG*kT*k[5mC]*kA) [compound 936533]
- EC50 [1]: 551 nM
